Data: patent US12378250B2, “Tricyclic compound as IRAK4 inhibitor” (KOREA RESEARCH INSTITUTE OF CHEMICAL TECHNOLOGY, priority 2018, dated 2025)

Columns and labels:
[1] = test system: IFN-α secretion, peripheral blood mononuclear cells (PBMCs); test: Suppression of IFN-α secretion in ODN2216-treated PBMCs (ELISA); assay type: cell-based; details: PBMC, 500 nM ODN2216, 72 hours, read-out: IFN-α, % inhibition degree
Protocol: (§1) Peripheral blood mononuclear cells (PBMCs) isolated from whole blood were distributed in a 96-well plate. TNF-α was aliquoted at a density of 1×10^5 cells/well, IFN-α was aliquoted at a density of 2×10^5 cells/well, and TNF-α and IFN-α were treated with a compound diluted to 4-fold of a final concentration and totally cultured for 30 minutes. TNF-α was treated with 100 ng/ml lipopolysaccharide (LPS), IFN-α was treated with 500 nM ODN2216 (CpGTLR9 stimulator), and TNF-α and IFN-α were further cultured for 24 hours and 72 hours, respectively. An enzyme-linked immunosorbent assay (ELISA) was performed on TNF-α and IFN-α using an ELISA kit manufactured by BD Biosciences and an ELISA kit manufactured by PBL Assay Science, Inc., respectively. A cell supernatant and a standard drug were put into the ELISA plates and reacted for 2 hours. The plates were washed and a measurement antibody and streptavidin-HRP were sequentially added thereto. After the plates were washed, a TMB substrate was added thereto and reacted in a dark place. The reaction was stopped by adding a stop solution thereto, and the absorbance at 450 nm and 570 nm was measured using an absorber (OPTIMax tunable microplate reader, molecular devices). The experimental results are shown in [Table 2].

[2] = test system: ISG promoter, THP1-Lucia™ ISG cell line; test: ISG promoter inhibition, THP1-Lucia ISG cell line; assay type: cell-based; details: 1 μg/ml Poly(dA:dT)/LyoVec, 24 hours, read-out: ISG, % inhibition degree
Protocol: (§2) A THP1-Lucia™ NF-κB cell line (Invivogen) was used in an NF-κB inhibition experiment, and a THP1-Lucia™ ISG cell line was used in an ISG inhibition experiment. In the NF-κB inhibition experiment, cells were planted at a density of 1×10^4 cells/well in a 96-well plate, and in the ISG inhibition experiment, cells were planted at a density of 2×10^4 cells/well in a 96-well plate. The cells were treated with a compound diluted to 4-fold of a final concentration, and totally cultured for 30 minutes. NF-κB was treated with 100 ng/ml lipopolysaccharide (LPS), ISG was treated with a stimulator of 1 μg/ml Poly(dA:dT)/LyoVec, and NF-κB and ISG were cultured for 24 hours. 10 μl of a cell supernatant was taken and transferred to a 96-well plate. 50 μl of a Quanti-luc solution was aliquoted using an automatic aliquoter of a measurer (Envision Multilabel Plate Reader, Perkin Elmer, Inc.), and light emission signals were measured.

IRAK4 enzyme = molecular target: T1, IRAK4 enzyme (Homo sapiens, UniProt Q9NWZ3); test: IRAK4 enzyme inhibition degree (bead-based kinase assay, peptide substrate BMKC-2, 100 μM ATP); assay type: biochemical; details: for inhibition at 1 µM: compound 1 μM
T1 sequence (Q9NWZ3 1-460): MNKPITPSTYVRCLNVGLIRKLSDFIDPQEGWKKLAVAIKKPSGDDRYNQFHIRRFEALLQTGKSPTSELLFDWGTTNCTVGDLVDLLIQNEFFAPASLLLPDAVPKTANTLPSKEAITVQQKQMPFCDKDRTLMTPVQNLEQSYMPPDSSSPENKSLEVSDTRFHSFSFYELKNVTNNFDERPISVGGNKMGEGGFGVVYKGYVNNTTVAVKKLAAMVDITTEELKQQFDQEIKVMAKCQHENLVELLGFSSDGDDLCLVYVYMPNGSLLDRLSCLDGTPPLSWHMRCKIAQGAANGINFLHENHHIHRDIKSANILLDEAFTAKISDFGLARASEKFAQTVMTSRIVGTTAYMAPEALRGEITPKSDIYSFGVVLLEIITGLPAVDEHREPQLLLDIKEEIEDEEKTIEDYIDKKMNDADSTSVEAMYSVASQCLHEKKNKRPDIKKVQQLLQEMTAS
Protocol: 2.5 μl of a compound diluted to 4-fold of a final concentration was put into a 384-well white plate (low volume). 2.5 μl of 0.4 ng/μl IRAK4 enzyme was added thereto, and the resulting mixture was totally reacted for 10 minutes. 5 μl of a mixed liquid of a 6 μM peptide substrate (BMKC-2) and 100 μM ATP was added thereto, the resulting mixture was reacted at room temperature for 60 minutes, then 2.5 μl of 10 mM EDTA was added thereto, and the resulting mixture was reacted again for 10 minutes. 40 nM anti-phospho Thr antibody was aliquoted to 2.5 μl each, 5 μl of a mixed solution of a 160 μl/ml acceptor bead and a donor bead was added thereto, and then the resulting mixture was reacted at room temperature for 60 minutes. Fluorescence signals were measured using a bead experimental apparatus (Fusion alpha-FP Microplate Reader, Perkin Elmer Inc.).
From the detected signal, an activity inhibition rate [% inhibition degree=(the average value of a compound−the average value of a negative control)/(the average value of a positive control−the average value of a negative control)×100] was calculated, and is shown in [Table 1]. Further, a % inhibition degree of the compound at each concentration was obtained, and then a 50% inhibition concentration (IC50 value) was analyzed by a non-linear regression analysis.

[3] = test system: TNF-α secretion, peripheral blood mononuclear cells (PBMCs); test: Suppression of TNF-α secretion in LPS-treated PBMCs (ELISA); assay type: cell-based; details: PBMC, 100 ng/ml LPS, 24 hours, read-out: TNF-α, % inhibition degree
Protocol: as §1

[4] = test system: NF-κB promoter, THP1-Lucia™ NF-κB cell line; test: NF-κB promoter inhibition, THP1-Lucia NF-κB cell line; assay type: cell-based; details: 100 ng/ml LPS, 24 hours, read-out: NF-κB, % inhibition degree
Protocol: as §2

Compound	IC50 (IRAK4 enzyme) [nM]	inhibition at 1 µM (IRAK4 enzyme) [%]	inhibition at 0.1 µM [1] [%]	inhibition at 1 µM [1] [%]	inhibition at 0.1 µM [2] [%]	inhibition at 1 µM [2] [%]	inhibition at 0.1 µM [3] [%]	inhibition at 1 µM [3] [%]	inhibition at 0.1 µM [4] [%]	inhibition at 1 µM [4] [%]
Fc1ccc(-c2ccc3[nH]c4ncnc(N[C@H]5CC[C@H](N6CCOCC6)CC5)c4c3c2)c(F)c1 [Compound 6aam, 6-(2,4-difluorophenyl)-N-(trans-4-morpholinocyclohexyl)-9H-pyrimido[4,5-b]indole-4-amine]	244	37	9	55	< 1	< 1	5	28	< 1	11
N#Cc1cccc(-c2ccc3[nH]c4ncnc(N[C@H]5CC[C@H](N6CCOCC6)CC5)c4c3c2)c1 [Compound 6aak, 3-(4-((trans-4-morpholinocyclohexyl)amino)-9H-pyrimido[4,5-b]indol-6-yl) benzonitrile]	104	98	53	98	< 1	30	16	70	< 1	37
Cn1cc(-c2ccc3[nH]c4ncnc(N[C@H]5CC[C@H](N(C)C)CC5)c4c3c2)cn1 [Compound 6abb, trans-N1,N1-dimethyl-N4-(6-(1-methyl-1H-pyrazol-4-yl)-9H-pyrimido[4,5-b]indol-4-yl)cyclohexane-1,4-diamine]	10	82	54	90.4	42	73	17.9	79.4	50	83
Fc1cc(F)cc(-c2ccc3[nH]c4ncnc(N[C@H]5CC[C@H](N6CCOCC6)CC5)c4c3c2)c1 [Compound 6aal, 6-(3,5-difluorophenyl)-N-(trans-4-morpholinocyclohexyl)-9H-pyrimido[4,5-b]indole-4-amine]	151	99	18	70	1	17	13	57	< 1	15
COc1cccc(-c2ccc3[nH]c4ncnc(N[C@H]5CC[C@H](N6CCOCC6)CC5)c4c3c2)c1 [Compound 6aaj, 6-(3-methoxyphenyl)-N-(trans-4-morpholinocyclohexyl)-9H-pyrimido[4,5-b]indole-4-amine]	159	99	6.4	56	14	20	3.2	30	< 1	33
COc1ccc(-c2ccc3[nH]c4ncnc(N[C@H]5CC[C@H](N6CCOCC6)CC5)c4c3c2)cn1 [Compound 6aah, 6-(6-methoxypyridin-3-yl)-N-(trans-4-morpholinocyclohexyl)-9H-pyrimido[4,5-b]indole-4-amine]	40	100	15	79	10	47	16	67	19	63
Cn1cc(-c2ccc3[nH]c4ncnc(N[C@H]5CC[C@H](N6CCN(S(C)(=O)=O)CC6)CC5)c4c3c2)cn1 [Compound 6aca, 6-(1-methyl-1H-pyrazol-4-yl)-N-(trans-4-(4-(methylsulfonyl)piperazin-1-yl)cyclohexyl)-9H-pyrimido[4,5-b]indole-4-amine]	13.8	100	40	99	23	73	29	107	28	85

Now from value to molecule, other results behind:

IC50 (IRAK4 enzyme) [nM]	inhibition at 1 µM (IRAK4 enzyme) [%]	Compound	inhibition at 0.1 µM [1] [%]	inhibition at 1 µM [1] [%]	inhibition at 0.1 µM [2] [%]	inhibition at 1 µM [2] [%]	inhibition at 0.1 µM [3] [%]	inhibition at 1 µM [3] [%]	inhibition at 0.1 µM [4] [%]	inhibition at 1 µM [4] [%]
29	83	CCOC(=O)c1ccc2[nH]c3ncnc(N[C@H]4CC[C@H](N5CCOCC5)CC4)c3c2c1 [Compound 5ba, ethyl 4-((trans-4-morpholinocyclohexyl)amino)-9H-pyrimido[4,5-b]indole-6-carboxylate]	27	73.9	37	78	31.7	41.3	48	89
128	99	COC(=O)c1ccc2c(c1)[nH]c1ncnc(N[C@H]3CC[C@H](N4CCOCC4)CC3)c12 [Compound 5da, methyl 4-((trans-4-morpholinocyclohexyl)amino)-9H-pyrimido[4,5-b]indole-7-carboxylate]	10	40	1	20	10	40	5	30
21	83	CCOC(=O)c1ccc2[nH]c3ncnc(N[C@H]4CC[C@H](N(C)C)CC4)c3c2c1 [Compound 5bb, ethyl 4-((trans-4-(dimethylamino)cyclohexyl)amino)-9H-pyrimido[4,5-b]indole-6-carboxylate]	27.3	90	43	73	7.3	47	58	92
32.6	100	COc1cncc(-c2ccc3[nH]c4nccc(N[C@H]5CC[C@H](N6CCN(S(C)(=O)=O)CC6)CC5)c4c3c2)c1 [Compound 17c]	23	99	2	52	7	88	2	53
